This is an account of results in patent US7491745B2, “Pyrrole-Type compounds, compositions and methods for treating cancer or viral disease” (Gemin X Pharmaceuticals Canada Inc., priority 2000, dated 2009).

pIC50: −log10 of the molar value.

Series [1] has as its system MCF-7 Breast Cancer cells. Put plainly: In vitro cytotoxicity assay (trypan blue), MCF-7. It is filed as cell-based, human. The note with it: for Cytoxicity (% Dead cells): MCF-7 Breast Cancer cells. The protocol:
(§1) Normal and cancerous human breast cells were plated at a density of ˜70,000-80,000 cells/well in 24 well plates. Each test compound was added to the cell media at the indicated concentration and incubated at 37° C. in a CO2 incubator for the indicated time. Following incubation, cells were harvested and exposed to trypan blue dye; dead cells were stained exclusively (living cells remained unstained) and counted.

For series [2], the system named is MBA-MB231 Breast Cancer cells. Description: In vitro cytotoxicity assay (trypan blue), MBA-MB231. It is filed as cell-based, human. To be noted: for Cytoxicity (% Dead cells): MBA-MB231 Breast Cancer cells, 72 h. The protocol: as §1
Series [3] has as its system Normal Human Breast Epithelial Cells. Put plainly: In vitro cytotoxicity assay (trypan blue), normal breast cells. Format: cell-based. The note with it: for Cytoxicity (% Dead cells): Normal Human Breast Epithelial Cells. How it is done: as §1
For series [4], the system named is Normal and cancerous human breast cells. Description: In vitro cytotoxicity assay, selective toxicity to oncogenic cells relative to normal cells. Format: cell-based. To be noted: trypan blue cytotoxicity assay. How it is done:
as §1

In series [5] the test system is H1299 human non-small cell lung cancer cells. Put plainly: Cell viability, cellular ATP levels (ViaLight), H1299. Format: cell-based. To be noted: NCI-H1299, Cell line H1299, NSCL-LC, 72 hours, read-out: IC50 of Compound 138T. An excerpt: (§2) C33A cervical carcinoma cells, Mrc-5 normal lung fibroblasts, PC-3 human prostatic carcinoma cell line, OVCAR-3 human ovarian carcinoma cal line, H460 large cell lung cancer cell line, A549 human lung carcinoma cell line, H1299 human non-small cell lung cancer cells, MCF-7 human breast cancer cell line, SW-480 human adenocarcinoma cell line, B16-F1 mouse melanoma cell line (American Type Culture Collection, Manassas, Va. USA), HMEC normal mammary epithelial cells (Clonetics San Diego, Calif., USA) and ADR-RES human breast cancer cell line (NCI, MD, USA) were cultured in the media recommended by the American Type Culture Collection. The cells lines were plated in 96-well microtiter plates (PerkinElmer Life Sciences Inc, Boston, Mass., USA) at a density that allowed them to reach confluence after 4 days of growth. One day after plating, the cells were treated with various concentrations of Compound 138T or Compound 139T. Stock solutions of the compounds were prepared in dimethyl sulfoxide (Sigma-Aldrich Inc., St. Louis, Mo., USA), diluted in media and then added to the cells. The total dimethyl sulfoxide on the cells was 1%. After 3 days of incubation the ATP levels in the cells were quantified using the luminescent ViaLight detection system (Bio-Whittaker, Md., USA). The results were plotted relative to untreated control cells, which were set at 100 (FIG. 1).

The test system of series [6] is MCF-7 human breast cancer cell line. Put plainly: Cell viability, cellular ATP levels (ViaLight), MCF-7. It is filed as cell-based. To be noted: MCF7, Cell line MCF-7, Breast, 72 hours, read-out: IC50 of Compound 138T.
Excerpt: as §2

The test system of series [7] is human cervical cancer C33A. Description: Antitumor activity in vivo, C33A tumors in SCID mice (tumor volume). Further details: species or system CB17 SCID/SCID mice. The protocol:
The C33A human cervical cancer cells were maintained in RPMI (Hyclone, Utah, USA) supplemented with 10% inactivated fetal bovine serum (Bio-Whittaker, Md., USA) and 1% penicillin-streptomycin-L-Glutamine (Gibco, N.Y., USA), under 5% CO2 at 37° C., and passaged twice a week. The cells were grown at a confluency lower than 70% and than collected with Trypsin (Bio-Whittaker, Md., USA). Cells were then centrifuged and washed two time in phosphate buffer solution (PBS) and resuspended in PBS at 2×10^6 cells per 100 μl. Viability was examined by staining with trypan blue (Gibco, N.Y., USA) and only flasks with cell viability greater than 95% were used for in vivo studies.
(§3) C33A cells were injected subcutaneously into the flanks of the female CB17 SCID/SCID mice. Each mouse was inoculated with a suspension of 2×10^6 tumor cells per 100 μl on day 0. There were ten mice in each treatment group, i.e., in the control group, the positive control group and the Compound 138T group.
(§4) Treatments started on day fourteen after C33A cells transplantation. Compound 138T was administered intravenously once daily for five consecutive days at a dose of 8 mg/kg. a solution of Compound 138T was prepared fresh daily in a vehicle solution of 5% Dextrose (Abbot Laboratories, QC, Canada) and 2% Tween20 (Sigma, St. Louis, Mo., USA). The control group was treated with vehicle alone. The injection volume for both, the Compound 138T treated group and the control group was 150 μl. The positive control group was treated once every 3 days for five times with cisplatin (Sigma, St. Louis, Mo., USA) at a dose of 4 mg/kg. Cisplatin was formulated in PBS on each day of the injection and was administered intraperitoneally in an injection volume of 80 μl.
(§5) The mice were weighed and the tumors were measured on day 13 and every 2 days after the treatment commenced. Observation continued for 40 days after initial tumor implantation. The changes in body weight and in the calculated tumor volume were plotted (FIG. 2 to 4).

The test system of series [8] is HMEC normal mammary epithelial cells. Put plainly: Cell viability, cellular ATP levels (ViaLight), HMEC. It is filed as cell-based. To be noted: 72 hours.
Excerpt: as §2

A short description of series [9]: Body weight and survival of C33A tumor-bearing SCID mice. Format: in vivo, CB17 SCID/SCID mice. How it is done:
as §3, §4, §5

Series [10] concerns H460 large cell lung cancer cell line. Put plainly: Cell viability, cellular ATP levels (ViaLight), H460. It is filed as cell-based. The note with it: Homo sapiens, NCI-H460, Cell line H460, NSCL-LC, 72 hours, read-out: IC50 of Compound 138T.
Excerpt: as §2

Series [11] concerns SW-480 human adenocarcinoma cell line. Description: Cell viability, cellular ATP levels (ViaLight), SW-480. To be noted: SW480, Cell line SW-480, Colorectal, 72 hours, read-out: IC50 of Compound 138T. Format: cell-based.
Excerpt: as §2

Series [12] relates to B16-F1 mouse melanoma cell line. Put plainly: Cell viability, cellular ATP levels (ViaLight), B16-F1. It is filed as cell-based. To be noted: Cell line B16-F1, Murine Melanoma, 72 hours, read-out: IC50 of Compound 138T.
Excerpt: as §2

The test system of series [13] is PC-3 human prostatic carcinoma cell line. Put plainly: Cell viability, cellular ATP levels (ViaLight), PC-3. Format: cell-based. The note with it: Cell line PC-3, Prostate, 72 hours, read-out: IC50 of Compound 138T.
Excerpt: as §2

In series [14] the test system is C33A cervical carcinoma cells. Put plainly: Cell viability, cellular ATP levels (ViaLight), C33A. Format: cell-based, human. To be noted: 72 hours; for effect on ATP levels in C33A cancer cell line compared with HMEC and MRC-5 normal cells (FIG. 1): 0.05 μM.
Excerpt: as §2

For series [15], the system named is A549 human lung carcinoma cell line. Put plainly: Cell viability, cellular ATP levels (ViaLight), A549. Format: cell-based. The note with it: Cell line A549, NSCL-aden, 72 hours, read-out: IC50 of Compound 138T.
Excerpt: as §2

The test system of series [16] is OVCAR-3 human ovarian carcinoma cal line. Description: Cell viability, cellular ATP levels (ViaLight), OVCAR-3. It is filed as cell-based. The note with it: Cell line OVCAR-3, Ovary, 72 hours, read-out: IC50 of Compound 138T.
Excerpt: as §2

The test system of series [17] is ADR-RES human breast cancer cell line. Put plainly: Cell viability, cellular ATP levels (ViaLight), ADR-RES. To be noted: Cell line NCI/ADR-RES, Breast (Mutli-drug resistant), 72 hours, read-out: IC50 of Compound 138T. It is filed as cell-based.
Excerpt: as §2

Where [18] appears, read: 8 mg/kg intravenously once daily for five consecutive days from day fourteen.

Turning to `CCCCC1CCCCCCc2cc1c(/C=C1\N=C(c3ccc[nH]3)C=C1OC)[nH]2` (stereo not shown) [Butyl-meta-cycloheptylprodiginine, 2-Butyl-11-((3-methoxy-5-(1H-pyrrol-2-yl)-2H-pyrrol-2-ylidene)methyl)-10-azabicyclo[7.2.1]dodeca-9(12),11-diene], the “cell death in cancer cells” value is 70% in series [1] (0.25 mM concentration (Table 10), first cancer cell value, MCF-7 in Table 10) and 64% in series [2] (0.25 mM concentration (Table 10), second cancer cell value, MBA-MB231 in Table 10). The “Cytoxicity (% Dead cells)” value in series [1] (0.25 μM, 72 h) worked out at 70%; in series [1] (1.0 μM, 72 h), 100%; in series [1] (2.0 μM, 72 h), 100%; in series [2] (0.25 μM), 64%; in [2] (1.0 μM) it was 100%; in [2] (2.0 μM) it was 100%. Besides, the “Cytoxicity (% Dead cells)” value in series [3] (0.25 μM, 72 h) was determined as 5%; in [3] (1.0 μM, 72 h), 5%; in series [3] (2.0 μM, 72 h), 15%. Also, the “cell death in normal cells” value in series [3] (0.25 mM concentration (Table 10)) came to 5%. Further, in series [4], the “selective toxicity to breast cancer cells relative to normal human breast epithelial cells” value is on record as “selectively killed the breast cancer cells”.
`COC1=CC(c2ccc[nH]2)=NC1=Cc1[nH]c(C)cc1C` [Compound 138T, 5′-(3,5-Dimethyl-1H-pyrrol-2-ylmethylene)-4′-methoxy-1H,5′H-[2,2′]bipyrrolyl]: the pIC50 (in general, the IC50 on a negative log10 scale, so that one unit is a factor of ten) in series [5] is 7.15; in series [6], 7.15; in series [8] (Homo sapiens, Cell line HMEC, Normal Breast, ATP levels, read-out: IC50 of Compound 138T), 5.70; in series [10], 7.22; in series [11], 7.30; in [12] it was 7.70. The pIC50 in series [13] is 7.30; in [14] (Homo sapiens, C-33-A, Cell line C3AA, Cervix, ATP levels, read-out: IC50 of Compound 138T), 7.52; in [15], 7.10; in [16], 7.52; in series [17] it was 7.15. Further, the “effect on human cervical tumors implanted in SCID mice” value in [7] (8 mg/kg intravenously once daily for five consecutive days) is listed as “significantly reduces the human cervical tumors implanted in SCID mice”. Moreover, the “tumor volume curve versus control, values in standard error of the mean (FIG. 4)” value in [7] (setting [18]) is reported as “significantly different from control curve for a longer period of time, until day 39”. Further, the “tumor volume versus control, values expressed in 95% confidence interval (FIG. 3)” value in [7] (setting [18]) was “significantly less than control until day 29”. In addition, the “tumor volume curve compared with the cisplatin treated group” value in [7] (8 mg/kg intravenously once daily for five consecutive days, cisplatin 4 mg/kg intraperitoneally) is given as “follows the tumor volume curve of the cisplatin treated group until day 39”. In [8] (ten cancer cell lines), the “effect on ATP levels in cancer cell lines compared with normal HMEC cell line” value is reported as “significantly more effective at lowering ATP levels in all the cancer cell lines”. This compound came in with a weight loss in series [9] (8 mg/kg intravenously once daily for five consecutive days, day 22) of 10%. Besides, the “effect on ATP levels in C33A cancer cell line compared with HMEC and MRC-5 normal cells (FIG. 1)” value in series [14] was “significantly more effective at lowering ATP levels in C33A cancer cell line”.
As for `CCCCc1cc(C)c(C=C2N=C(c3ccc[nH]3)C=C2OC)[nH]1` [Compound 139T, 5′-(5-Butyl-3-methyl-1H-pyrrol-2-ylmethylene)-4′-methoxy-1H,5′H-[2,2′]bipyrrolyl], in series [14], the “effect on ATP levels in C33A cancer cell line compared with HMEC and MRC-5 normal cells (FIG. 1)” value is given as “significantly more effective at lowering ATP levels in C33A cancer cell line”.
In [9] (4 mg/kg intraperitoneally once every 3 days for five times, day 29), `N.N.[Cl][Pt][Cl]` [cisplatin] showed a weight loss of 28%. For the same compound, the “mice died in treated group” value in series [9] (4 mg/kg intraperitoneally once every 3 days for five times, days 29 and 32, ten mice per group) is reported as “Two”.
Take Ethyl-meta-cyclononylprodiginine: the “Cytoxicity (% Dead cells)” value in series [1] (0.2 μM, 24 h) was determined as 45%; in [1] (1.0 μM, 24 h), 62%; in series [1] (2.0 μM, 24 h) it was 65%; in [3] (0.2 μM, 24 h), 10%; in series [3] (1.0 μM, 24 h) it was 9%; in [3] (2.0 μM, 24 h) it was 15%.
